Measurements reported in US10154684B2, “Hair regrowth and growth promoter and use thereof” (PHARMA FOODS INTERNATIONAL CO., LTD., priority 2014, dated 2018).

System: C57BL/6 (female) mice
Experiment: Assessment of hair growth-promoting effect on androgen-induced telogen in C57BL/6 mice
Assay type: in vivo, mouse
Details: DHT 2 mg/mL, 100 μL subcutaneously every other day, casein-containing feed, Day 14, vs no DHT
Procedure: C57BL/6 (female) mice available from Charles River Laboratories Japan, Inc. were used for the test. The animals were randomly divided into test groups so that the mean body weight was approximately equal between groups. The mice were housed three per cage at room temperature (25° C.) under a 12-hour light-dark cycle.
The mice at six weeks old purchased from the vendor were preliminarily bred for one week for acclimation to the test environment. A commercially available hair removal cream was applied to the dorsal region of the mice at an age of seven weeks old to remove the hair.
Until the start of the test, the mice were fed with free access to a solid CRF-1 feed (Oriental Yeast Co., Ltd.) and tap water as drinking water.
The hair of the 7-week-old C57BL/6 mice was in the telogen phase of the hair cycle, but due to the stimulation of hair removal, the hair gradually entered into the anagen phase. This transition in the hair cycle was hampered by administration of an androgen after the hair removal. […] From two days after the hair removal, the mixed feeds indicated in Table 5 were given with free access thereto.
On the final observation day (Day 14 of administration), the mice in the test and control groups were anesthetized and fixed on a photography table, and the hair removal region was photographed.

SMILES: C[C@]12CCC(=O)C[C@@H]1CC[C@@H]1[C@@H]2CC[C@]2(C)[C@@H](O)CC[C@@H]12 [DHT, dihydrotestosterone]
- Blackening of the dorsal skin after hair removal: inhibited
